From patent US20240148749A1 (priority 2021, published 2024)

Tests used:
brain tissue = assay: Cytokine and chemokine levels in mice brain at 21 days after CLP (Luminex); assay type: in vivo, mouse; conditions: CLP vs control × MnTBAP vs placebo
Experimental: We used peritonitis induced by CLP as a model of sepsis (Rittirsch et al., 2009). Briefly, animals were anesthetized with ketamine (Imalgene® 1000 100 mg/kg, Merial, France) and Xylazine (Rompun® 2% 20 mg/kg, Bayer, Germany) prior to surgery. After laparotomy, caecum was ligatured at the distal third with a 4.0 suture and the distal part was perforated twice with a 21 Gauge needle.
(§1) MnTBAP is commercially available: it is for example manufactured by Sigma-Aldrich, Calbiochem, etc. For use it is dissolved following the guidance provided by the manufacturer.
Brain: snap frozen brain samples (n=6 per condition and per time point) were thawed, lysed by mechanical agitation (lysing matrix), and supernatant was aliquoted and stored at −80° C. until analysis.
These samples were processed for Luminex® multiple cytokine and chemokine analysis (Bio-Plex® Pro™ Mouse Cytokine Standard 23-flex, Group I and Standard 9-flex, Group II). Fifty microlitres of sample was analyzed on the Bio-flex system (Bio-Rad) in accordance with the manufacturers instructions. Data analyses for all assays were performed using the Bio-flex Manager software. […] Normalization was done by weight of the frozen brain sample.
The data represent the level of protein expression in pg mg^−1 of brain tissue using Luminex®. Control mice were non-operated but anesthetized. Median values of n=5 mice per group are represented. […]

microglial cells = assay: Microglial ROS/RNS, antioxidant defense and bioenergetic/mitochondrial parameters at 21 days; assay type: in vivo, mouse
Experimental: (§2) Data shown are mean values (±SD). Gray bars represent MnTBAP-treated mice from either CLP or control groups, and black bars represent placebo-treated mice from either CLP or Control groups. Two-way analyses of variance (ANOVAs) (CLP vs control×MnTBAP vs Placebo) were performed. When a significant interaction was observed, planned comparisons were performed for the CLP/Placebo group against the three other groups. The significance of the planned comparisons is indicated with asterisks (*p<0.05, **p<0.01, ***p<0.001, ****p<0.0001) .
as §2, with “Control×MnTBAP” for “control×MnTBAP”, “****p<0.0001).” for “****p<0.0001) .”
as §1
Brains were collected for cell dissociation and Cdllb-positive cell separation using a magnetic coupled antibody (MACS® Technology), according to the manufacturer's protocol (Miltenyi Biotec, Bergisch Gladbach, Germany) and as previously described (Schang et al., 2014). In brief, mice were intracardially perfused with NaCl 0,9%. The brains are then dissociated using the Neural Tissue Dissociation Kit containing trypsin and the gentleMACS Octo Dissociator with Heaters. From the resulting brain homogenate, cd11 b-positive cells were enriched using the anti-cd11 b MicroBeads. After elution the isolated cells were centrifuged for 5 min at 200G and conserved at −80° C.
Total RNA was isolated from cells using the RNAeasy Micro kit (Qiagen), and reverse-transcribed using Superscript® III Reverse transcriptase (Invitrogen). Real-time quantitative PCR was performed in duplicate for each sample using Power Sybr Green PCR Master Mix (Applied Biosystems) and the rate of dye incorporation was monitored using the StepOne™ Plus RealTime PCR system (Applied Biosystems). Data were analyzed by StepOne Plus RT PCR software v2.1 and Microsoft excel. Amplification specificity was assessed with a melting curve analysis. TBP transcript levels were used for normalisation of each target (=ΔCT). Real-time PCR CT values were analyzed using the 2^−(ΔCt) method to calculate the fold expression (Schmittgen et al., 2008). The data are presented as relative mRNA units with respect to control group (expressed as fold over control value). Primer sequences available upon request.
Microglial cells and brain samples were resuspended in lysis buffer (50 mM TrisHCI pH 7.5, 150 mM NaCl, 1% Triton X-100, 0.1% SDS, 1 mM EDTA, and protease inhibitor mixture), mechanically homogenized with a piston, briefly vortexed and incubated for 30 min at 4° C. Lysed samples were briefly centrifuged to remove debris, and the whole supernatant extract was collected. Aliquots of the supernatant were immediately used for the assessment of ROS level, RNS level, dual ROS/RNS level, SOD activity, and Acetyl-Coa level. The protein content was determined with the Bradford reagent (Sigma-Aldrich).
Both ROS and RNS were measured by incubating CellROX (Life Technologies) with 30 μg of freshly extracted total proteins for 45 min at 37° C. in the dark in 96-wells plate in triplicate. Fluorescence intensity was measured using near-infra-red fluorescence setting with the plate reader Odyssey Infrared Imaging system scanner and Odyssey application software v3.0 (LI-COR Biosciences, Lincoln, NE).
SOD activity was measured with Superoxide Dismutase Activity Colorimetric Assay kit (Abcam, ab65354), following the manufacturer's instructions. […]

[1] = Liu et al., 2013b; cited from earlier work
[2] = CLP mice + MnTBAP compared to CLP-placebo mice, 21 days
[3] = CLP mice + MnTBAP vs CLP-placebo, 21 days after sepsis, remained different from Control-Placebo
[4] = MnTBAP in control mice vs Control-placebo mice
[5] = MnTBAP in control mice vs Control-placebo mice, p<0.0001
[6] = MnTBAP in control mice vs Control-placebo mice, p=0.0003

For O=C(O)c1ccc(/C2=C3\C=CC(=N3)/C(c3ccc(C(=O)O)cc3)=c3/cc/c4[n]3[Mn]([Cl])[n]3c2ccc3/C(c2ccc(C(=O)O)cc2)=C2/C=CC(=N2)\C=4c2ccc(C(=O)O)cc2)cc1 [MnTBAP, Manganese (III) tetrakis (4-benzoic acid)porphyrin chloride], the “measured brain tissue cytokines, two-way ANOVA” value (brain tissue) was “did not show any CLP vs control×MnTBAP vs placebo interaction, or difference linked to condition or treatment between the groups”, the “microglial OXPHOS/glycolysis ATP balance” value (microglial cells; [2]) was “strong microglial metabolic shift from mitochondrial OXPHOS to glycolysis” and the “microglial PGC1 alpha expression” value (microglial cells; [2]) was “increase”. The “microglial mtDNA content” value (microglial cells; [2]) was “strong mtDNA content increase”, the “microglial mtRNA 16S expression” value (microglial cells; [2]) was “strong increase” and the “microglial mtRNA CytB expression” value (microglial cells; [2]) was “strong increase”. The “microglial NRF2 transcript expression” value (microglial cells; [3]) was “significantly increasing”, the “microglial ROS/RNS levels” value (microglial cells; [3]) was “significantly increasing” and the “microglial SOD1 transcript expression” value (microglial cells; [3]) was “significantly increasing”. For the same compound, the “microglial SOD2 transcript expression” value (microglial cells; [3]) was “significantly increasing”, the “microglial SOD activity” value (microglial cells; [3]) was “significantly increasing” and the “microglial catalase transcript expression” value (microglial cells; [3]) was “significantly increasing”. For the same compound, the “sepsis-induced microglial reprogramming and alterations” value (microglial cells; CLP mice, 21 days after sepsis) was “successfully reversed”, the “microglial bioenergetic metabolite acetyl-CoA level” value (microglial cells; CLP mice, systemic MnTBAP treatment, FIG. 8) was “reduction” and the “microglial ATP generation” value (microglial cells; [4]) was “did not affect”. For the same compound, the “microglial SOD activity” value (microglial cells; [4]) was “did not affect”, the microglial glycolysis contribution (microglial cells; [4]) was “did not affect” and the “microglial mtDNA content” value (microglial cells; MnTBAP in control mice vs Control-placebo mice, 0.01) was “reduced”. For the same compound, the “microglial NRF2 expression” value (microglial cells; [5]) was “slightly reduced”, the “microglial SOD1 expression” value (microglial cells; [5]) was “slightly reduced” and the “microglial mtRNA 16S level” value (microglial cells; [5]) was “reduced”. The “microglial mtRNA CytB level” value (microglial cells; [5]) was “reduced”, the “microglial PGC1 alpha expression” value (microglial cells; [6]) was “reduced” and the “microglial SOD2 expression” value (microglial cells; [6]) was “slightly reduced”. For the same compound, the microglial catalase expression (microglial cells; MnTBAP in control mice vs Control-placebo mice, p=0.0036) was “slightly reduced”, the “microglial ROS/RNS levels” value (microglial cells; MnTBAP in control mice vs Control-placebo mice, p=0.005) was “slightly reduced” and the BBB penetration [1] was “poorly penetrates the BBB”.
